Literature values in patent publication US20160074320A1, “PHARMACEUTICAL COMPOSTIONS COMPRISING KISSPEPTIN OR DERIVATIVES THEREOF” (OURO FINO SAÚDE ANIMAL LTDA, priority 2013, published 2016).
Ends that are not written are not given here.

Assays:
sheep [1] = conditions: sheep in anestrus, low and sustained (30 to 48 h) doses IV
sheep [2] = conditions: Kp-10 applied 30 h after removal of intra-vaginal progesterone device (CIDR)

In the case of “Kp-10: 10 amino acid fragment cleaved from kisspeptin, the 145 amino acid protein encoded by Kiss-1 gene (YNWNSFGLRF; ends and bridges not checked; UniProt Q15726 112-121, looked up, fragment)”, the “ovulation, share of animals” value (sheep [1]) is given as “more than 80%”, the hormone release (prepubertal heifers; IV administration) is given as “induces the release of LH and growth hormone (GH)” and the “LH pulses (Redmond and collaborators)” value (prepubertal heifers; IV injections) is given as “increase of frequency and amplitude of the pulses of LH”. The “peak of LH, time after removal of CIDR” value (sheep [2]) was ~32 h.
